Data published in US11065244B2, “Methods of use of tetrahydroberberine (THB)” (DIGNITY HEALTH, priority 2010, dated 2021).

Tests used:
[1] = test system: D2 receptor and dopamine-opened K+ channels; assay: Dopamine-induced membrane potential hyperpolarization in dissociated SNc DA neurons; type: cell-based, rat
Description: All experiments were performed at room temperature (22±1° C.).

SNc DA neurons = assay: Perforated patch current-clamp recording of membrane potential and firing of dissociated SNc DA neurons, substance applied alone; type: cell-based, rat
Description: (§1) The protocol for preparation of single neurons from the rat SNc was approved by the Institutional Animal Care and Use Committee of the Barrow Neurological Institute. Single DA neurons were acutely dissociated from the SNc of 2-3-week-old Wistar rats following the protocol as previously described. Briefly, rats were anesthetized with isoflurane, and brain tissue was rapidly removed and immersed in cold (2-4° C.) dissection solution which contained: 136.7 mM NaCl, 5 mM KCl, 0.1 mM Na2HPO4, 0.2 mM KH2PO4, 9.84 mM HEPES, 16.6 mM D-glucose, 21.9 mM sucrose, pH 7.3, 330 mOsm, oxygenated with 100% O2 [8]. Three 400-μm coronal slices containing the SNc were cut using a vibrotome (Vibroslice 725M, WPI, Sarasota, Fla.). After cutting, slices were continuously bubbled with 95% O2-5% CO2 at room temperature (22±1° C.) for at least one hour in artificial cerebrospinal fluid (ACSF), which contained: 124 mM NaCl, 5 mM KCl, 24 mM NaHCO3, 1.3 mM MgSO4, 1.2 mM KH2PO4, 2.4 mM CaCl2, and 10 mM glucose, pH 7.4. Thereafter, slices were treated with pronase (1 mg per 6 ml) at 31° C. for 30 minutes in ACSF. The SNc was identified in a coronal slice using a stereo microscope with reference to the rat brain atlas, and was micro-punched out from slices using a well-polished needle. One punched piece was then transferred to a 35-mm culture dish filled with well-oxygenated standard extracellular solution, which contained: 150 mM NaCl, 5 mM KCl, 1 mM MgCl2, 2 mM CaCl2, 10 mM glucose 10, and 10 mM HEPES, pH 7.4 (with Tris-base). The punched piece was then dissociated mechanically using a fire-polished micro-Pasteur pipette under an inverted microscope (Olympus IX-70, Lake Success, N.Y.). The separated cells adhered to the bottom of the culture dish within 30 minutes. In the present study, we used only DA neurons that maintained their original morphological features of polygonal, large or medium somata with 2-4 thick primary dendritic processes were used.
Perforated patch whole-cell recording techniques were employed as previously described. Pipettes (3-5 MΩ) used for perforated patch recording were filled with intracellular recording solution containing 140 mM potassium gluconate, 10 mM KCl, 5 mM MgCl2, and 10 mM HEPES, pH 7.2 (with Tris-OH). The amphotericin B was freshly prepared to 200-240 μg/ml from a 40 mg/ml in DMSO stock. The liquid junction potential was 14 mV calculated using Clamplex 9.2 (Axon Instruments, Foster City, Calif.) and corrections were made for junction potentials post-hoc. After tight seal (>2 GΩ) formation, it usually took about 5-20 min to convert to perforated patch mode, and an access resistance of 20-60 MΩ was accepted to start the experiments. Series resistance was not compensated in this study. The data were filtered at 2 kHz, acquired at 10 kHz and digitized on-line (Digidata 1322 series A/D board, Axon Instruments, Foster City, Calif.). […] Drug application was performed using a computer-controlled “U-tube” system as previously described. All experiments were performed at room temperature (22±1° C.). To enable identification of single, dissociated SNc neurons after a patch-clamp recording session, the recording pipette was filled with a fluorescent dye (lucifer yellow CH, Sigma Chemical Co., St. Louis, Mo., 1.0 mg/ml in the recording electrode) in some experiments. After conversion from the perforated patch to the conventional whole-cell recording mode, the dye was ejected into the cytoplasm by a pulse (200 ms, 0.5 Hz) of hyperpolarizing current (1.0 nA) for 3 min. Labeled cells were visualized using epifluorescence microscopy. […]

[2] = molecular target: T1, KATP channels in SNc DA neurons (Rattus norvegicus, UniProt P70673+Q09429); assay: Perforated patch current-clamp recording of rotenone-opened KATP channels in dissociated SNc DA neurons; type: cell-based; settings: for altered membrane potential (depolarization) on rotenone-opened KATP channels, analog comparison: 100 μM, 6 neurons, FIG. 4B; for altered membrane potential in the presence of rotenone: FIG. 5C
T1 construct: functional KATP channels natively expressed on midbrain dopamine neurons; from tissue; host or cells: acutely dissociated dopaminergic neurons of rat substantia nigra pars compacta
T1 sequence (P70673 whole entry): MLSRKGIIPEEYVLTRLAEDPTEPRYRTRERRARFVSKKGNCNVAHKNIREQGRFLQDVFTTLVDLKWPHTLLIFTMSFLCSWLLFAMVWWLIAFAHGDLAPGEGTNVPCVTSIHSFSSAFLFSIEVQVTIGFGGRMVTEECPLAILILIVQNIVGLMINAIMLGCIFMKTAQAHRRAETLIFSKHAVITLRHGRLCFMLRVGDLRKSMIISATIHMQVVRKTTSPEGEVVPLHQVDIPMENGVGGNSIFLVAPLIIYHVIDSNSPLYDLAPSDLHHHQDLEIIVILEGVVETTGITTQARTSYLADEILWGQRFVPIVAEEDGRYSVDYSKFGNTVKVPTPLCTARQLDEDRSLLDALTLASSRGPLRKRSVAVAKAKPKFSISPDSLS
T1 sequence (Q09429 whole entry): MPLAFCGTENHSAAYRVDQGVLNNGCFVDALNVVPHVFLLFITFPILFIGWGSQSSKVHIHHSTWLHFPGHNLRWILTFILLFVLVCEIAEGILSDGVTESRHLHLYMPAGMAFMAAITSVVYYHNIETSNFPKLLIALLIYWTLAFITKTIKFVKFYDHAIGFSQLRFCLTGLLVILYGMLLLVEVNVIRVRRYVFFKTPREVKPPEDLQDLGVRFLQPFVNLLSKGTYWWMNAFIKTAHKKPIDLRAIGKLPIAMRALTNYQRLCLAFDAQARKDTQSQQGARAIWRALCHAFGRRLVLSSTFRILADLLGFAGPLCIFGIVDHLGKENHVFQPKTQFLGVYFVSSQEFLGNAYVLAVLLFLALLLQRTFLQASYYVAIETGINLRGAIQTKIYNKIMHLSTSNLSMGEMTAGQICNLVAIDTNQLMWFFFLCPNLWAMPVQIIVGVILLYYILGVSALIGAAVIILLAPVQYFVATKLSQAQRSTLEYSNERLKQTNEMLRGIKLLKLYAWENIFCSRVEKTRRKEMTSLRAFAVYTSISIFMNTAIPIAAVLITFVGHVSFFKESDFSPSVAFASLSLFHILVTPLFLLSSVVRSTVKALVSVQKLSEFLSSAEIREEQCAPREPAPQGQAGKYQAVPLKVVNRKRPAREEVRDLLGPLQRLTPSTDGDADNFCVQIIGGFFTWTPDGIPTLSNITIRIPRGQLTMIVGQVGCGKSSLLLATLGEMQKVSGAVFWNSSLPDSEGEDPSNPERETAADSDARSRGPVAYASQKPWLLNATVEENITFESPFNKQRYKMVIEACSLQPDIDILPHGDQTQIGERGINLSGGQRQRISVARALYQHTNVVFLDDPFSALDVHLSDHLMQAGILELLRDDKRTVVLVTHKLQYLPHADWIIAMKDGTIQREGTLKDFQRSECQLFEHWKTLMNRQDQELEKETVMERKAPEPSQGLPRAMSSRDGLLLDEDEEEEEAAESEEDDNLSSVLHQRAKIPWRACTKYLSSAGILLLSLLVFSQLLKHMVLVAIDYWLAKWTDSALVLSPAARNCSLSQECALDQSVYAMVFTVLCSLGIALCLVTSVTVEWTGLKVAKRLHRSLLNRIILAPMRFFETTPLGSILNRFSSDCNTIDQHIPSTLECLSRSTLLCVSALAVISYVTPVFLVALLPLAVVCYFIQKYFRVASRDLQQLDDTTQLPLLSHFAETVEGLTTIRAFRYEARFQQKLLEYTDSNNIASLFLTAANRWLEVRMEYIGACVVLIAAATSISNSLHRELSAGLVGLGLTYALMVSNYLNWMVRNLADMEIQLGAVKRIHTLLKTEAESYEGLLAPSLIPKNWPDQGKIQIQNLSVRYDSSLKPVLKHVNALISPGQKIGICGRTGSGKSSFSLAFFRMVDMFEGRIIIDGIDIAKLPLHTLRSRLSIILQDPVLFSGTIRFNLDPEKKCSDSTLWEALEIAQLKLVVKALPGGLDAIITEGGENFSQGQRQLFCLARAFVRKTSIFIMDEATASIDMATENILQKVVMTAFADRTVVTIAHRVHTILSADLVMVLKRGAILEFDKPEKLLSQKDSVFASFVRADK
Description: as §1
Perforated patch whole-cell recording techniques were employed as previously described. Pipettes (3-5 MΩ) used for perforated patch recording were filled with intracellular recording solution containing 140 mM potassium gluconate, 10 mM KCl, 5 mM MgCl2, and 10 mM HEPES, pH 7.2 (with Tris-OH). The amphotericin B was freshly prepared to 200-240 μg/ml from a 40 mg/ml in DMSO stock. The liquid junction potential was 14 mV calculated using Clamplex 9.2 (Axon Instruments, Foster City, Calif.) and corrections were made for junction potentials post-hoc. After tight seal (>2 GΩ) formation, it usually took about 5-20 min to convert to perforated patch mode, and an access resistance of 20-60 MΩ was accepted to start the experiments. Series resistance was not compensated in this study. The data were filtered at 2 kHz, acquired at 10 kHz and digitized on-line (Digidata 1322 series A/D board, Axon Instruments, Foster City, Calif.). […] Drug application was performed using a computer-controlled “U-tube” system as previously described. All experiments were performed at room temperature (22±1° C.). To enable identification of single, dissociated SNc neurons after a patch-clamp recording session, the recording pipette was filled with a fluorescent dye (lucifer yellow CH, Sigma Chemical Co., St. Louis, Mo., 1.0 mg/ml in the recording electrode) in some experiments. After conversion from the perforated patch to the conventional whole-cell recording mode, the dye was ejected into the cytoplasm by a pulse (200 ms, 0.5 Hz) of hyperpolarizing current (1.0 nA) for 3 min. Labeled cells were visualized using epifluorescence microscopy.
Under physiological conditions, the KATP channels are mostly closed. However, in the acutely-dissociated single neurons from rat SNc, there is background opening of KATP channels. […]

neuronal KATP channels = molecular target: T2, neuronal KATP channels (Rattus norvegicus, UniProt P70673+Q09429); assay: Rotenone-induced outward current in voltage-clamp mode in the presence of the D2 receptor antagonist sulpiride; type: cell-based; settings: VH −30 mV, 6 neurons
T2 construct: functional KATP channels natively expressed on midbrain dopamine neurons; from tissue; host or cells: acutely dissociated dopaminergic neurons of rat substantia nigra pars compacta
T2 sequence (P70673 whole entry): as the sequence (P70673 whole entry) above
T2 sequence (Q09429 whole entry): as the sequence (Q09429 whole entry) above
Description: as §1, with “In the present study, we used only DA neurons that maintained their original morphological features of polygonal, large or medium somata with 2-4 thick primary dendritic processes were used.” left out
Perforated patch whole-cell recording techniques were employed as previously described. […] The liquid junction potential was 14 mV calculated using Clamplex 9.2 (Axon Instruments, Foster City, Calif.) and corrections were made for junction potentials post-hoc. […]

Kir6.2SUR1 KATP channels = molecular target: T3, Kir6.2SUR1 KATP channels (Homo sapiens, UniProt Q09428+Q14654); assay: Patch-clamp cell attached single-channel recording of transfected Kir6.2SUR1 channels in HEK-293 cells; type: cell-based; settings: 100 μM; control as 1; THB 6 patches, Ipt 8 patches
T3 construct: expressed in transfected cells; host or cells: HEK-293
Description: In β-cells, the dominant subtype of KATP is the Kir 6.2SUR1 subtype, as earlier described. Cells transiently transfected with the KATP Kir 6.2SUR1 channel subtype were evaluated for membrane potential and action potential firing using cell-attached recording in the presence or absence of 100 μm THB (FIG. 8A).
To further determine the effects of THB and Ipt on pancreatic β-cell-type KATP channels, the inventor examined the effects of THB or Ipt on the transfected Kir6.2SUR1 KATP channels in HEK-293 cells.

[3] = molecular target: T4, pancreatic β-cell KATP channels (Rattus norvegicus, UniProt P70673+Q09429); assay: Whole-cell KATP currents induced by ramp pulses in rat pancreatic β-cells; type: cell-based; settings: 100 μM bath application; external glucose 5.5 mM; ramp −90 to −50 mV
T4 construct: Single Channel Currents of KATP Channels in Rat Pancreatic β-Cells; from tissue; host or cells: rat pancreatic β-cells
T4 sequence (P70673 whole entry): as the sequence (P70673 whole entry) above
T4 sequence (Q09429 whole entry): as the sequence (Q09429 whole entry) above
Description: To determine whether or not THB and Ipt can block pancreatic β-cell KATP channels, whole-cell currents induced by repetitive ramp pulses from −90 to −50 mV (at 0.2 Hz) were recorded in voltage-clamp mode (external glucose=5.5 mM).

[4] = molecular target: T4, pancreatic β-cell KATP channels; assay: Inside-out patch single channel recording in rat pancreatic β-cells, ATP free solution; type: cell-based; settings: bath-applied
Kir6.2/SUR1 = molecular target: T5, Kir6.2/SUR1 (Homo sapiens, UniProt Q09428+Q14654); assay: Whole-cell voltage-clamp currents of KATP channel subtypes, pancreatic type; type: cell-based; settings: 100 μM perfused for 30 sec; currents at −100 mV; n=4
T5 construct: expressed in transfected cells
Description: (§2) Using whole-cell recordings in voltage-clamp mode, Command pulse protocol was set by the series test pulses with 100 ms duration that were applied between −100 and +50 mV in 10 mV steps from a holding potential of 0 mV (Top traces in FIG. 11, plots A-C). Representative effects of Ipt (100 μM perfused for 30 sec) on whole-cell current traces recorded from a cell expressed Kir6.2/SUR1 (A), Kir6.2/SUR2A (B) or Kir6.1/SUR2B (C). FIG. 11, plot D summarizes data for currents measured at −100 mV from A-C. Values are means±S.E.M. (n=4). *P<0.05, **P<0.01 vs. control.

Kir6.2/SUR2A = molecular target: T6, Kir6.2/SUR2A (Homo sapiens, UniProt O60706+Q14654); assay: Whole-cell voltage-clamp currents of KATP channel subtypes, cardiac type; type: cell-based; settings: 100 μM perfused for 30 sec; currents at −100 mV; n=4
T6 construct: expressed in transfected cells
Description: as §2

Kir6.1/SUR2B = molecular target: T7, Kir6.1/SUR2B (Homo sapiens, UniProt O60706+Q15842); assay: Whole-cell voltage-clamp currents of KATP channel subtypes, vesicle type; type: cell-based; settings: 100 μM perfused for 30 sec; currents at −100 mV; n=4
T7 construct: expressed in transfected cells
T7 sequence (Q15842 whole entry, the tested form may be a part): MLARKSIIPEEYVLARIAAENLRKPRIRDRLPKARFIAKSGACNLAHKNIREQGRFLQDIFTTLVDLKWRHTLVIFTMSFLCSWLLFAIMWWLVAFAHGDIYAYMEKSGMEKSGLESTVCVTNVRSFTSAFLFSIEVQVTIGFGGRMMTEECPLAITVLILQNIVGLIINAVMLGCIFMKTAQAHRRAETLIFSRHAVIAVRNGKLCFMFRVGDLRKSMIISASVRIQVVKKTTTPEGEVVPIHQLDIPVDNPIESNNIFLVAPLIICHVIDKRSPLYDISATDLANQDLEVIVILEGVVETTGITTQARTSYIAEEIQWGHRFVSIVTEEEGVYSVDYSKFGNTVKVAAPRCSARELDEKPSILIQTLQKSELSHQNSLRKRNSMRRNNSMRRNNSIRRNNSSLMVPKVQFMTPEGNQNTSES
T7 sequence (O60706 1-1549 isoform O60706-2): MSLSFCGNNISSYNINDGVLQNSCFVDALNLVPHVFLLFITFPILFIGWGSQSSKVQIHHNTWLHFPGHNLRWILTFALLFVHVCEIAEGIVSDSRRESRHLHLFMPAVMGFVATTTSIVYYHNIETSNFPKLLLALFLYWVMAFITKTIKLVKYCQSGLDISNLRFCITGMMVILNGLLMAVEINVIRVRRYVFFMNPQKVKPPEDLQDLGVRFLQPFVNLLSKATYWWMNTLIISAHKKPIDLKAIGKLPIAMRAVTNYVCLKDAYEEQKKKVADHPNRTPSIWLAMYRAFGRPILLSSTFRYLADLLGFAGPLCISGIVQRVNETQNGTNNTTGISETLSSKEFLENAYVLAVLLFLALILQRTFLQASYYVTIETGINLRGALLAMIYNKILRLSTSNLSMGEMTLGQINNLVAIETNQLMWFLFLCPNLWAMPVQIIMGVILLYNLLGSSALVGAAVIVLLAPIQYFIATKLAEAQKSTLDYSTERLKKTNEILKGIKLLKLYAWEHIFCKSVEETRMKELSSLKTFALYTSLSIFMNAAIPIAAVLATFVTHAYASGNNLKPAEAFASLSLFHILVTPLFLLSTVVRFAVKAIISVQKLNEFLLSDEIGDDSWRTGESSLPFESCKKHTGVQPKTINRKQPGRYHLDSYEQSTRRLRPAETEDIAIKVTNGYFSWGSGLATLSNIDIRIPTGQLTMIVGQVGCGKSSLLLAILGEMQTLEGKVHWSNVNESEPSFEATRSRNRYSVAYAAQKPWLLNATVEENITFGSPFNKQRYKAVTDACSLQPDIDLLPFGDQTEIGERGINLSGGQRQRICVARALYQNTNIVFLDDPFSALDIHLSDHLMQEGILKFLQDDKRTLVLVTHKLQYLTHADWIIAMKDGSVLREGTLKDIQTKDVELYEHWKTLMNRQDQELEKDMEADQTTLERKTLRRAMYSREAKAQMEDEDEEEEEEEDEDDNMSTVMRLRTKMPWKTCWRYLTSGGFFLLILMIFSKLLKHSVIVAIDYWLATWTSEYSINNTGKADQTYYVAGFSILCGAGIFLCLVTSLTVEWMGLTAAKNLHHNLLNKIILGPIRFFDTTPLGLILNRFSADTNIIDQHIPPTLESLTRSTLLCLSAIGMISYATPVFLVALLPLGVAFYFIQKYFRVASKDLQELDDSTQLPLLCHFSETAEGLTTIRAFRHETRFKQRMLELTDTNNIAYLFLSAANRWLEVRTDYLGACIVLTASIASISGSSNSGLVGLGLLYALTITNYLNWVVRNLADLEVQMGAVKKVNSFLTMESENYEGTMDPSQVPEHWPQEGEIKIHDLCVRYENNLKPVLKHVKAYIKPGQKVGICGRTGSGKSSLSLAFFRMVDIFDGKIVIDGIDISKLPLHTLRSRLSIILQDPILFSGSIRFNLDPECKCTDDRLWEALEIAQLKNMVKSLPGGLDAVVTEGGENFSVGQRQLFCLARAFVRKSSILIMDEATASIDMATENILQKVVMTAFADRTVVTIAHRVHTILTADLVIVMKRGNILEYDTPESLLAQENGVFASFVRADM
Description: as §2

rat pancreatic islets = assay: Insulin release from rat pancreatic islets; type: cell-based; settings: 100 μM; 5.5 mM glucose external; from 22.5±1.2
Description: With 5.5 mM glucose in the external solution, basal insulin secretion was measured. […] Bath application of 100 μM THB increased insulin secretion from 22.5±1.2 to 39.4±1.5 pg/islet/min (FIG. 5; P<0.01; 6 cells) and 100 μM Ipt increased insulin secretion from 22.5±1.2 to 34.5±1.8 pg/islet/min (FIG. 11; P<0.05; 7 cells).

[5] = molecular target: vascular KATP channels (Kir6.1SRU2B) (Homo sapiens, UniProt O60706+Q15842); settings: relevant low concentration; cited from earlier work
Sequence of vascular KATP channels (Kir6.1SRU2B) (Q15842 whole entry): as the sequence (Q15842 whole entry, the tested form may be a part) above
Sequence of vascular KATP channels (Kir6.1SRU2B) (O60706 1-1549 isoform O60706-2): as the sequence (O60706 1-1549 isoform O60706-2) above

[6] = test system: cardiac KATP channels (Kir6.1SUR2A); settings: relevant low concentration; cited from earlier work
[7] = molecular target: neuronal type and pancreatic type of KATP channels (Kir6.2SUR1) (Homo sapiens, UniProt Q09428+Q14654); settings: relatively high concentrations; cited from earlier work

SMILES: NCCc1ccc(O)c(O)c1 [dopamine]
- membrane potential hyperpolarization by dopamine ([1]; 10 μM dopamine bath-application, 10 neurons, p<0.01): 10.5±1.1 mV

SMILES: CC1=Nc2ccc(Cl)cc2S(=O)(=O)N1 [dizoxide]
- effect of KATP channel opener on membrane potential (SNc DA neurons; 300 μM (FIG. 3B legend)): hyperpolarized membrane potential

SMILES: CCN1CCCC1CNC(=O)c1cc(S(N)(=O)=O)ccc1OC (centres unmarked) [sulpiride]
- effect of D2 receptor antagonist alone on resting membrane potential (SNc DA neurons; exposure alone, neuronal firing rate was increased): did not clearly alter resting membrane potential

SMILES: COc1cc2c(cc1O)[C@@H]1Cc3ccc(O)c(OC)c3CN1CC2 [l-SPD, l-stepholidine]
- altered membrane potential (depolarization) on rotenone-opened KATP channels, analog comparison [2]: 8.4±1.4 mV

SMILES: COc1cc2c(cc1OC)[C@@H]1Cc3ccc(OC)c(OC)c3CN1CC2 [l-THP, l-tetrahydropalmatine]
- altered membrane potential (depolarization) on rotenone-opened KATP channels, analog comparison [2]: 3.4±0.5 mV

SMILES: C=C(C)[C@H]1Cc2c(ccc3c2O[C@@H]2COc4cc(OC)c(OC)cc4[C@@H]2C3=O)O1 [rotenone]
- membrane potential after perfusion of rotenone (SNc DA neurons; 1 μM rotenone for 1-3 min, averaged resting membrane potential −46.1±0.9 mV, 30 neurons, p<0.001): −61.1±0.9 mV
- rotenone-induced outward current amplitude (neuronal KATP channels; in the presence of sulpiride): 125.8±37.1 pA

SMILES: CCCCNC(=O)NS(=O)(=O)c1ccc(C)cc1 [tolbutamide]
- membrane potential after substance during persistent perfusion of rotenone ([2]; 1 μM rotenone, before: THB −61.7±1.3 (n=11), tolbutamide −61.6±1.2 (n=21), p<0.01): −52.5±1.1 mV
- altered membrane potential in the presence of rotenone ([2]; 1 μM substance): 0.2±0.1 mV
- altered membrane potential in the presence of rotenone ([2]; 10 μM substance): 4.4±0.3 mV
- altered membrane potential in the presence of rotenone ([2]; 100 μM substance): 9.1±0.5 mV
- Hill coefficient of concentration-effect relationship curve ([2]; membrane depolarization in the presence of rotenone): 2.1
- IC50 ([2]; membrane depolarization in the presence of rotenone, read-out: IC50 of concentration-effect relationship curve (block of KATP channels)): 10.4 µM
- membrane potential after exposure to substance alone (SNc DA neurons; 100 μM, before: THB −46.5±0.9 (n=7), tolbutamide −44.4±1.6 (n=5)): −44.1±1.8 mV
- altered membrane potential on co-application with dopamine ([1]; difference THB vs tolbutamide p>0.05): 8.5±2.2 mV
- rotenone-induced outward current amplitude after addition of substance (neuronal KATP channels; 100 mM substance as printed, sulpiride present, from 125.8±37.1 pA, p<0.01): 45.8±23.7 pA

SMILES: CC(C)NC(C)(C)C(C)C [Ipt, Iptakalim]
- normalized NPo value (Kir6.2SUR1 KATP channels): 0.50±0.02
- effect on β-cell KATP channel-mediated whole-cell currents [3]: reduced these β-cell KATP channel-mediated currents
- effect on single channel activities opened by ATP free solution [4]: inhibited these single channel activities
- effect on whole-cell current of Kir6.2/SUR1 (Kir6.2/SUR1): blocks β-cell-type KATP channels
- effect on whole-cell current of Kir6.2/SUR2A (Kir6.2/SUR2A): opens cardiovascular types of KATP channels
- effect on whole-cell current of Kir6.1/SUR2B (Kir6.1/SUR2B): opens cardiovascular types of KATP channels
- insulin secretion after bath application (rat pancreatic islets): 34.5±1.8 pg/islet/min
- concentration at which Ipt mainly opens vascular KATP channels [5]: < 10 µM
- concentration at which Ipt weakly opens cardiac KATP channels [6]: < 10 µM
- concentration at which Ipt blocks neuronal type and pancreatic type of KATP channels [7]: > 30 µM
